Measured values from patent publication US5411707A, “Vacuum extractor incorporating a condenser column” (priority 1994, dated 1995).
Values joined by “and” are separate entries in the source; they are usually repeats but may differ in a detail not shown here. Equal entries are not always repeated. Where two headings read alike, the source gives them in different places.

Key:
[1] = cited from earlier work
[2] = 1 gram cod liver oil, 200 ppb spike recovery only
From the text: The cryotrap is placed in liquid nitrogen which is replaced as needed throughout the operation. The sample valve is placed in the load position. Samples are placed in the sample chamber and the chamber attached to the apparatus. The coolant/heat valve is adjusted so that the condenser fluid is circulating and at the desired temperature. The vacuum pump is turned on and the vacuum pump valve and sample chamber valve are opened to begin distillation/purging. After five minutes the pressure at the vacuum pump, as measured by a Pirani gauge reads about 0.1 Torr and a Pirani gauge reads less than about 250 Torr at the sample chamber. Distillation continues for another five minutes to complete distillation at which time the sample chamber pressure should be approximately 10 Torr.
Once distillation is complete, the sampling valve is adjusted to the injection position. The liquid nitrogen is removed from the cryotrap and replaced with a beaker of hot (about 90° C.) tap water. The GC/MS then begins to collect data. At this stage, the sample chamber may be removed and the apparatus prepared for another sample. If multiple samples are connected, a new sample chamber may be connected in sequence.

Structure (SMILES)	SOLUBIL. IN H2O ([1]; in H2O)	also measured
Cc1ccc(C(C)C)cc1 [para-iso-Propyl toluene]	1 PPM	–
CCCc1ccccc1 [n-Propylbenzene]	60 PPM	–
CCOCC [Diethyl ether]	60400 PPM	–
Oc1ccccc1Cl [2-Chlorophenol]	5 PPM	–
Cc1cc(C)cc(C)c1 [1,3,5-Trimethyl benzene]	2000 PPM	–
Cc1ccc(C)c(C)c1 [1,2,4-Trimethyl benzene]	–	SOLUBIL. IN H2O ([1]; water): 1 PPM
OCc1ccccc1 [Benzyl alcohol]	80000 PPM	–
Clc1cccc(Cl)c1Cl [1,2,3-Trichloro benzene]	1 PPM	–
Cc1ccccn1 [2-Picoline]	–	SOLUBIL. IN H2O ([1]; water): 1000000 PPM
C=CCCl [Allyl chloride]	3600 PPM	–
Cc1ccccc1O [2-Methylphenol]	775000 PPM	–
CCCCc1ccccc1 [n-Butylbenzene]	5000 PPM	–
CC(C)c1ccccc1 [iso-Propylbenzene]	5000 PPM	–
Cc1ccc(Cl)cc1 [4-Chlorotoluene]	5 PPM	–
Brc1ccccc1 [Bromobenzene]	400 PPM	–
c1ccc2c(c1)oc1ccccc12 [Dibenzofuran]	1 PPM	–
CC(C)(C)c1ccccc1 [tert-Butlybenzene]	290 PPM	–
Cc1ccccc1N [o-Toluidine]	17000 PPM	–
CCC(C)=O [2-Butanone]	–	Oil Recovery (200 ppb spike only) [2]: 128 ± 21.5%

Structure (SMILES)	SOLUBIL. IN H2O ([1]; in H2O)	also measured
Clc1ccccc1Cl [1,2-Dichlorobenzene]	10000 PPM	–
C=CC#N [Acrylonitrile]	73000 PPM	–
CCC(C)c1ccccc1 (stereo not shown) [sec-butylbenzene]	320 PPM	–
Clc1cc(Cl)c(Cl)c(Cl)c1Cl [Pentachlorobenzene]	1 PPM	–
Nc1ccccc1 [Aniline]	32500 PPM	–
C=C(C)C(=O)OC [Methyl methacrylate]	16000 PPM	–
O=NN1CCCCC1 [n-Nitroso-piperidine]	1000000 PPM	–
CC(=O)c1ccccc1 [Acetophenone]	5500 PPM	–
BrCBr [Dibromomethane]	11500 PPM	–
Nc1ccccc1[N+](=O)[O-] [2-Nitroaniline]	5 PPM	–
ClCCOCCCl [bis(2-Chloroethyl) ether]	1 PPM	–
Nc1ccc(Cl)cc1 [4-Chloroaniline]	5 PPM	–
c1ccc2ccccc2c1 [Naphthalene]	3400 PPM	–
Cc1ccc(O)c(C)c1 [2,4-Dimethylphenol]	5 PPM	–
Cc1cc(O)ccc1Cl [4-Chloro-3-methyl phenol]	1 PPM	–
Clc1cccc(Cl)c1 [1,3-Dichlorobenzene]	11000 PPM and 10000 PPM	–
CCCN(CCC)N=O [n-Nitroso-di-n-propylamine]	5 PPM	–
O=NN1CCOCC1 [n-Nitrosomorpholine]	1000000 PPM	–
